# Assays:
# [1] = target: Transcriptional enhancer factor TEF-3 (Homo sapiens, UniProt Q15561); assay: Binding affinity to N-terminal His6-tagged human TEAD4-YBD (217 to 434 residues) expressed in Escherichia coli C43 (DE3) cells assessed as change in melting temperature at 1:4 ratio by SYPRO-dye based thermal shift assay
# [2] = target: LIM domain kinase 2 (Homo sapiens) (UniProt P53671); assay: Inhibition of human LIMK2 at 10 uM by radiometric assay relative to control
# [3] = target: Receptor-interacting serine/threonine-protein kinase 2 (Homo sapiens) (UniProt O43353); assay: Inhibition of human RIPK2 (1 to 299 residues) at 10 uM using MBP as substrate measured after 120 mins in presence of [gamma33P]ATP by scintillation counting method relative to control
# [4] = tested on: Serine/threonine-protein kinase N1 (Homo sapiens), Q16512 [V901I]; assay: Inhibition of human PRK1 V901I mutant (498 to end residues) at 10 uM using KKLNRTLSFAEPG as substrate measured after 40 mins in presence of [gamma33P]ATP by scintillation counting method relative to control
# [5] = tested on: Glycogen synthase kinase-3 beta (Homo sapiens), P49841 [UNDEFINED MUTATION]; assay: Inhibition of recombinant human GSK3beta H350L mutant (2 to end residues) at 10 uM using phospho GS2 peptide as substrate measured after 40 mins in presence of [gamma33P]ATP by scintillation counting method relative to control
# [6] = target: Beta-adrenergic receptor kinase 1 (Homo sapiens) (UniProt P25098); assay: Inhibition of full length recombinant human GRK2 at 10 uM using casein as substrate after 40 mins in presence of [gamma33P]ATP by scintillation counting method relative to control
# [7] = target: Phosphatidylinositol 4-phosphate 5-kinase type-1 gamma (Homo sapiens) (UniProt O60331); assay: Inhibition of recombinant full-length human PIP5K1g at 10 uM using phosphatidylinositol 4-phosphate as substrate measured after 40 mins by fluorescence assay relative to control
# [8] = target: Serine/threonine-protein kinase pim-2 (Homo sapiens) (UniProt Q9P1W9); assay: Inhibition of recombinant human PIM2 (2 to end residues) at 10 uM using RSRHSSYPAGT as substrate measured after 40 mins in presence of [gamma33P]ATP by scintillation counting method relative to control
# [9] = target: Serine/threonine-protein kinase pim-1 (Homo sapiens) (UniProt P11309); assay: Inhibition of recombinant full-length human PIM1 at 10 uM using KKRNRTLTV as substrate measured after 40 mins in presence of [gamma33P]ATP by scintillation counting method relative to control
# [10] = target: Fibroblast growth factor receptor 2 (Homo sapiens) (UniProt P21802); assay: Inhibition of recombinant human FGFR2 (456 to 770 residues) at 10 uM using poly(Glu, Tyr) 4:1 as substrate measured after 40 mins in presence of [gamma33P]ATP by scintillation counting method relative to control
# [11] = target: Serine/threonine-protein kinase 17B (Homo sapiens) (UniProt O94768); assay: Inhibition of full-length recombinant human DRAK2 at 10 uM using KKRPQRRYSNVF as substrate after 120 mins by in presence of [gamma33P]ATP by scintillation counting method relative to control
# [12] = tested on: RAF proto-oncogene serine/threonine-protein kinase (Homo sapiens), P04049 [Y340D,Y341D]; assay: Inhibition of recombinant human c-RAF Y340D/Y341D mutant (360 to end residues) at 10 uM using inactive MEK1 as substrate measured after 40 mins in presence of [gamma33P]ATP by scintillation counting method relative to control
# [13] = target: Casein kinase I isoform delta (Homo sapiens) (UniProt P48730); assay: Inhibition of recombinant human CK1delta (1 to 294 residues) at 10 uM using KRRRALS(p)VASLPGL as substrate measured after 40 mins in presence of [gamma33P]ATP by scintillation counting method relative to control
# [14] = target: Platelet-derived growth factor receptor beta (Homo sapiens) (UniProt P09619); assay: Inhibition of recombinant human PDGFRbeta (557 to end residues) at 10 uM using poly(Glu, Tyr) 4:1 as substrate measured after 40 mins in presence of [gamma33P]ATP by scintillation counting method relative to control
# [15] = target: Serine/threonine-protein kinase Nek2 (Homo sapiens) (UniProt P51955); assay: Inhibition of recombinant human full length NEK2 at 10 uM using myelin basic protein as substrate incubated for 40 mins in presence of [gamma-33P]-ATP by scintillation counting method relative to control
# [16] = target: Myosin-IIIb (Homo sapiens) (UniProt Q8WXR4); assay: Inhibition of recombinant full-length human MYO3B (1 to 326 residues) at 10 uM using RLGRDKYKTLRQIRQ as substrate measured after 40 mins in presence of [gamma33P]ATP by scintillation counting method relative to control
# [17] = target: Myosin light chain kinase 2, skeletal/cardiac muscle (Homo sapiens) (UniProt Q9H1R3); assay: Inhibition of recombinant full-length human MYLK2 at 10 uM using KKLNRTLSFAEPG as substrate measured after 40 mins in presence of [gamma33P]ATP by scintillation counting method relative to control
# [18] = target: Serine/threonine-protein kinase Chk1 (Homo sapiens) (UniProt O14757); assay: Inhibition of recombinant full length human CHK1 at 10 uM using KKKVSRSGLYRSPSMPENLNRPR as substrate measured after 40 mins in presence of [gamma33P]ATP by scintillation counting method relative to control
# [19] = target: Cyclin-dependent kinase-like 2 (Homo sapiens) (UniProt Q92772); assay: Inhibition of human CDKL2 at 10 uM by radiometric method relative to control
# [20] = target: CDK12/Cyclin K (Homo sapiens) (UniProt O75909+Q9NYV4); assay: Inhibition of full-length recombinant human CDK12/cyclinK at 10 uM using RSRSRSRSRSRSRSR as substrate after 40 mins by in presence of [gamma33P]ATP by scintillation counting method relative to control; format: protein-complex assay
# [21] = target: Mitogen-activated protein kinase kinase kinase kinase 5 (Homo sapiens) (UniProt Q9Y4K4); assay: Inhibition of recombinant full-length human MAP4K5 at 10 uM using myelin basic protein as substrate measured after 40 mins in presence of [gamma33P]ATP by scintillation counting method relative to control
# [22] = target: Calcium/calmodulin-dependent protein kinase type 1 (Homo sapiens) (UniProt Q14012); assay: Inhibition of recombinant full length human CAMK1 (2 to end residues) at 10 uM using […] as substrate incubated for 40 mins in presence of [gamma-33P]-ATP by scintillation counting method relative to control
# [23] = target: Tyrosine-protein kinase BTK (Homo sapiens) (UniProt Q06187); assay: Inhibition of full-length recombinant human BTK at 10 uM using KVEKIGEGTYGVVYK as substrate measured after 40 mins in presence of [gamma33P]ATP by scintillation counting method relative to control
# [24] = target: Histone-arginine methyltransferase CARM1 (Homo sapiens) (UniProt Q86X55); assay: Inhibition of human PRMT4 at 10 uM relative to control
# Sequence of Serine/threonine-protein kinase pim-1 (Homo sapiens) (P11309 whole entry, looked up, the tested form may be a part): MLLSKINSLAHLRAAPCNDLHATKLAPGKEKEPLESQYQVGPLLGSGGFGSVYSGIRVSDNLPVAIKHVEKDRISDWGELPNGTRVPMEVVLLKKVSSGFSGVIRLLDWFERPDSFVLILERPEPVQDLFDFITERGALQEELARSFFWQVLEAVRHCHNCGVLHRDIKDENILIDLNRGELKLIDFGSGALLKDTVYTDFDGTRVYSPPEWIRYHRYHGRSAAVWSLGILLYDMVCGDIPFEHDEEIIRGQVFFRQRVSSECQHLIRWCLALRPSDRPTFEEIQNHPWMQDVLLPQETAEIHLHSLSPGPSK
# Sequence of RAF proto-oncogene serine/threonine-protein kinase (Homo sapiens), P04049 [Y340D,Y341D] (P04049 whole entry Y340D/Y341D, the tested form may be a part, canonical isoform): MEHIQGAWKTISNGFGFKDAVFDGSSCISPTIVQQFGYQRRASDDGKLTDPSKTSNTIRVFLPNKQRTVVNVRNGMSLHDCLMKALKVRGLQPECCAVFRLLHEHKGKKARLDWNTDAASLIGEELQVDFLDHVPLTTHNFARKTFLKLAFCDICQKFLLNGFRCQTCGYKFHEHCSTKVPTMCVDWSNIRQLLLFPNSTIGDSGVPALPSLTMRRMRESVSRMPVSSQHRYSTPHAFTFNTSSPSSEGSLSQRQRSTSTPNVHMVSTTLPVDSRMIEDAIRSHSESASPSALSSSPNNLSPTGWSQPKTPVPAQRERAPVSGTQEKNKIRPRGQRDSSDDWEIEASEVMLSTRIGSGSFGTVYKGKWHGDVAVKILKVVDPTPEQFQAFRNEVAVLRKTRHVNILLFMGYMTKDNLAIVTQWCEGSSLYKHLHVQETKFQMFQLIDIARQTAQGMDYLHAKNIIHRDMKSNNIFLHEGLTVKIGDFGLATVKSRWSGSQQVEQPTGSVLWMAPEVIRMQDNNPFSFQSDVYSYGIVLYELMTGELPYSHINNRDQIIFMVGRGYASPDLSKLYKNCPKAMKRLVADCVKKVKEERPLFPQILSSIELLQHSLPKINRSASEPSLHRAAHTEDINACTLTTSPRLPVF
# Sequence of Transcriptional enhancer factor TEF-3 (Q15561 whole entry, the tested form may be a part): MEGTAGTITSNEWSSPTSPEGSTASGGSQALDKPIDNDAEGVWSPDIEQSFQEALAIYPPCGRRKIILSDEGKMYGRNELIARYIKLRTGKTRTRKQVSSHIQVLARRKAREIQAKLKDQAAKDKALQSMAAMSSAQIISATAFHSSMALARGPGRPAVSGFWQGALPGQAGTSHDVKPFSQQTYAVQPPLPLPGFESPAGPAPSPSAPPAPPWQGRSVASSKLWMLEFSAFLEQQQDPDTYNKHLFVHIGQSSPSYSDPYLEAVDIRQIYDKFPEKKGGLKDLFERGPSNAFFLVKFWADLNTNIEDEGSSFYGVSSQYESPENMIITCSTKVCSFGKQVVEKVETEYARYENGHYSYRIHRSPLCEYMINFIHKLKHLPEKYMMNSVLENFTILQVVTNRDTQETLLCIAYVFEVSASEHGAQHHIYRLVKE
# Sequence of Glycogen synthase kinase-3 beta (Homo sapiens), P49841 [UNDEFINED MUTATION] (P49841 whole entry, looked up, stated change not applied): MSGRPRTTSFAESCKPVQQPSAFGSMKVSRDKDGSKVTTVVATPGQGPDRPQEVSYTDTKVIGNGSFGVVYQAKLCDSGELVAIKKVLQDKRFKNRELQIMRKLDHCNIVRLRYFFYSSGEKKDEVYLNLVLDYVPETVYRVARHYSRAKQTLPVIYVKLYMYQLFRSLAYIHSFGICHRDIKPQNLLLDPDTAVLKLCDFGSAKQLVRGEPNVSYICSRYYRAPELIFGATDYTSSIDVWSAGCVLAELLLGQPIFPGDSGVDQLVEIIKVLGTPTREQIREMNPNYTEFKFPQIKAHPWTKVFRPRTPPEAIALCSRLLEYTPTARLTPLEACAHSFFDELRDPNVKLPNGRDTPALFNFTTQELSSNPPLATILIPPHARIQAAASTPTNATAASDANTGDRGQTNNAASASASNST
# Sequence of Serine/threonine-protein kinase N1 (Homo sapiens), Q16512 [V901I] (Q16512 whole entry V901I): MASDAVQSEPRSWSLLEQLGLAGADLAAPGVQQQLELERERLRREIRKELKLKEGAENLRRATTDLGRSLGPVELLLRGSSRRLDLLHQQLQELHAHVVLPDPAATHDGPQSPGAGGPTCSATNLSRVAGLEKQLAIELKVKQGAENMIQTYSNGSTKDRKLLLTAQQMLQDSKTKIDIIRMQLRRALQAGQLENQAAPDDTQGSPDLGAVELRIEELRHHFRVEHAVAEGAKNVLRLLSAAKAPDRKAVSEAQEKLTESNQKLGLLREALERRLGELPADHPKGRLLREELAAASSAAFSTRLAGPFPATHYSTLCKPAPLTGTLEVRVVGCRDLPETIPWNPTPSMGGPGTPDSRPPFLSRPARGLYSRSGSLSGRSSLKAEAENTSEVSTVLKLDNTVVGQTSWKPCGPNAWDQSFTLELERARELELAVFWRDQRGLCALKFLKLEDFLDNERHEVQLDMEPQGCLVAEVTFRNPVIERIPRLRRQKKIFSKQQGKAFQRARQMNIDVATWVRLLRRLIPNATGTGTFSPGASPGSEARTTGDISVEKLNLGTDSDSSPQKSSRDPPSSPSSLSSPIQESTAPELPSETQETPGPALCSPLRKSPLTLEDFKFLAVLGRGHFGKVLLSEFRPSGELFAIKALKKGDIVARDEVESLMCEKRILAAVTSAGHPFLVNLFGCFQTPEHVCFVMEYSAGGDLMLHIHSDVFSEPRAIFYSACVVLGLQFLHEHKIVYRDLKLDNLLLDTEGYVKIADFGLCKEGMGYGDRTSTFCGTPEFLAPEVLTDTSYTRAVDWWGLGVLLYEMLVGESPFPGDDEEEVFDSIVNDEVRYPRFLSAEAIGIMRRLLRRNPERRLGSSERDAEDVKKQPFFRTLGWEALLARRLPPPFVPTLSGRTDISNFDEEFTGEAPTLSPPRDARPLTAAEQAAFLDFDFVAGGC
# Sequence of Serine/threonine-protein kinase Nek2 (Homo sapiens) (P51955 whole entry, the tested form may be a part): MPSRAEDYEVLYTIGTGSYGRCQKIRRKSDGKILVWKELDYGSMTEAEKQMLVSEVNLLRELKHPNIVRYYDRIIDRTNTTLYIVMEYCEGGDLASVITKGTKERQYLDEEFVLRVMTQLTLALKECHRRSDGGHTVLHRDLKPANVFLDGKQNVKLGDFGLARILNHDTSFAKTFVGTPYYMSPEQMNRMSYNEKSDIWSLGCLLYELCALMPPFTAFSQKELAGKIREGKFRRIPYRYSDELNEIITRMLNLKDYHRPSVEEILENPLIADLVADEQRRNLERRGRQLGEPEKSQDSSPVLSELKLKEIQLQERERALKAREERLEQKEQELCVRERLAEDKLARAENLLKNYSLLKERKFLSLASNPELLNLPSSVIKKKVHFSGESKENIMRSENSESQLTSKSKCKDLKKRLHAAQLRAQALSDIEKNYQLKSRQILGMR
# Sequence of Mitogen-activated protein kinase kinase kinase kinase 5 (Homo sapiens) (Q9Y4K4 whole entry, looked up): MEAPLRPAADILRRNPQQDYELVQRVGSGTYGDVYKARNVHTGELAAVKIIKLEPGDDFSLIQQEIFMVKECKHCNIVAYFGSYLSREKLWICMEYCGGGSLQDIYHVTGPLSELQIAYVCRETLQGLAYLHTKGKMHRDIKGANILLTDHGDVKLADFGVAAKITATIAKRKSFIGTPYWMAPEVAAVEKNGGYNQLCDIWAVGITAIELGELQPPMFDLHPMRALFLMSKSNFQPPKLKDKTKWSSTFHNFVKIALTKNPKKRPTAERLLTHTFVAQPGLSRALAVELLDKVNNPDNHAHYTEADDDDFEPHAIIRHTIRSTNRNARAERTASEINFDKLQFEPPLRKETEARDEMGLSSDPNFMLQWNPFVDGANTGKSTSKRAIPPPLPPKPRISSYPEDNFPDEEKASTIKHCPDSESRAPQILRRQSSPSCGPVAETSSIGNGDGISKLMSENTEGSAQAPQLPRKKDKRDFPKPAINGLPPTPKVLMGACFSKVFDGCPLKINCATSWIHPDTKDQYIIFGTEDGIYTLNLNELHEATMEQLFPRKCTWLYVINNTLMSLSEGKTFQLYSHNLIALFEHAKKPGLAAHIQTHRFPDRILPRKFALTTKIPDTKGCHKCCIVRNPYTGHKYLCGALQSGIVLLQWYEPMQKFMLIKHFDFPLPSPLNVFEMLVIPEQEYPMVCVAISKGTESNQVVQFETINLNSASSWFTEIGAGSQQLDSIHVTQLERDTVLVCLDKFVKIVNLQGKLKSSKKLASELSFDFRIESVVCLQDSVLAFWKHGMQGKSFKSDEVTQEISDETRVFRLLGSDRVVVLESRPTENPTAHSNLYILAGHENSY
# Sequence of Beta-adrenergic receptor kinase 1 (Homo sapiens) (P25098 whole entry): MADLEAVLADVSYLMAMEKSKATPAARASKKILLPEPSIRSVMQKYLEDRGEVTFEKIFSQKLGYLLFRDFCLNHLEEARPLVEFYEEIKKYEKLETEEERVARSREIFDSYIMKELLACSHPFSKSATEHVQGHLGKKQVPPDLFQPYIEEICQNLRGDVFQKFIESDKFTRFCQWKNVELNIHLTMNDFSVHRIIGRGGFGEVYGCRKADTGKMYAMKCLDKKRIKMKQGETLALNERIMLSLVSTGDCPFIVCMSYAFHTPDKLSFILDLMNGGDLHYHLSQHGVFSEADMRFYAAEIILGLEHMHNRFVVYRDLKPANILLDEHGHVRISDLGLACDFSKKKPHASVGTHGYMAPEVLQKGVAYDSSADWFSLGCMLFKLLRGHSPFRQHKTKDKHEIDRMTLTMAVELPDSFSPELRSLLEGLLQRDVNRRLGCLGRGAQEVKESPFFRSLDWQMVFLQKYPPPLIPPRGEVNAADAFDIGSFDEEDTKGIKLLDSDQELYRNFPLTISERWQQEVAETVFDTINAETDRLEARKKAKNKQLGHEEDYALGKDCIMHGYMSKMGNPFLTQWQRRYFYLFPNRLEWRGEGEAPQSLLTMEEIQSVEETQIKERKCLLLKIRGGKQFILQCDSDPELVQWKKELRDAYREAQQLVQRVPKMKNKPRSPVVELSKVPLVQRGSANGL
compound,measurement,setting,value
C=CS(=O)(=O)Nc1ccc(Cc2ccc3ccccc3c2)cc1,ΔTm,[1],7.5 °C
same,inhibition,[2],-8%
same,inhibition,[3],6%
same,inhibition,[4],2%
same,inhibition,[5],-2%
same,inhibition,[6],-9%
same,inhibition,[7],-3%
same,inhibition,[8],13%
same,inhibition,[9],-3%
same,inhibition,[10],-4%
same,inhibition,[11],-3%
same,inhibition,[12],-8%
same,inhibition,[13],3%
same,inhibition,[14],3%
same,inhibition,[15],-5%
same,inhibition,[16],1%
same,inhibition,[17],6%
same,inhibition,[18],5%
same,inhibition,[19],3%
same,inhibition,[20],11%
same,inhibition,[21],2%
same,inhibition,[22],6%
same,inhibition,[23],5%
same,inhibition,[24],5%
